Our source for the EC50 values is paper PMC2934701 (The Journal of Biological Chemistry, 2010).

Substitutions are numbered along the chain they refer to.

The target in experiment [1] is T1, hTAS2R16 (ssr3-hTAS2R16) (Homo sapiens, UniProt Q9NYV7, E86D).
T1 sequence (Q9NYV7 1-291 E86D): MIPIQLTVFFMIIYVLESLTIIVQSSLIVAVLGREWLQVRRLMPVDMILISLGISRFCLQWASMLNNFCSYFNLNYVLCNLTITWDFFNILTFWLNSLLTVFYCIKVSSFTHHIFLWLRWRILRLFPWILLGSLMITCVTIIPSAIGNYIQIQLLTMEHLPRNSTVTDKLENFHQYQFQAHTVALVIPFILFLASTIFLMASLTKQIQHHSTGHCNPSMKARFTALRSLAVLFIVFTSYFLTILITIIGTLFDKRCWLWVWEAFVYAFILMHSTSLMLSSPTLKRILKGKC
Kind of experiment: Fluo-4 calcium assay, HEK293T + Galpha16gust44. It counts as cell-based.

The target in experiment [2] is T2, hTAS2R16 (ssr3-hTAS2R16) (Homo sapiens, UniProt Q9NYV7).
T2 sequence (Q9NYV7 1-291): T1 sequence (Q9NYV7 1-291 E86D) with D86E
Nature of the experiment: Fluo-4 calcium assay, HEK293T + Galpha16gust44. It counts as cell-based.

Turning to `OC[C@H]1O[C@@H](Oc2ccc(O)cc2)[C@H](O)[C@@H](O)[C@@H]1O` [arbutin], the EC50 came out at 10.6 mM on hTAS2R16 (ssr3-hTAS2R16) [1] and 1.34 mM at hTAS2R16 (ssr3-hTAS2R16) [2].
